Results taken from US20240366611A1, “METHODS OF TREATING A DISEASE OR DISORDER” (Ascentage Pharma (Suzhou) Co., Ltd., priority 2021, published 2024).

Assays:
[1] = test system: HBG mRNA in human CD34+ HSC; test: HBG mRNA level in human CD34+ HSC (qRT-PCR); assay type: cell-based; details: 7 days of treatment
Description: Human cord blood CD34+ hematopoietic stem cells (HSC) were first expanded in the expansion medium (StemSpan SFEM II+StemSpan CD34 Expansion Supplement) to achieve the desired number of cells, and then differentiated in differentiation medium (StemSpan SFEM II+StemSpan Erythroid Expansion Supplement (100×)) for three days without drug treatment. Various concentrations of Cpd. 73 were added on the fourth day of differentiation and further incubated with the cells for another 7 days. 33 mM Hydroxyurea was used as the control.
After 7 days of treatment, the cells were collected. Total RNA was isolated using Trizol LS reagent (Invitrogen-10296028) and 1 μg RNA of each sample was reverse transcribed into cDNA using High Capacity cDNA Reverse Transcription Kit (AB (Applied Biosystems)-4374966), according to the manufacturer's instructions. Quantitative RT-PCR (qRT-PCR) was performed using an Applied Biosystems QuantStudio 7 Flex system with the primer pairs shown as below: hHBG-mRNA-F1 (5′-[…]-3′) and hHBG-mRNA-R1 (5′-TCACTCAGCTGGGCAAAGG-3′). […] The HBG mRNA level were 1.09-, 2.49-, 7.84-, 9.69- and 12.2-folds of the vehicle group when the cells were treated with 0.01 μM, 0.03 μM, 0.1 μM, 0.3 μM and 1.0 μM Cpd. 73 respectively. […] 73 which increased HBG mRNA by 12.2 folds (p<0.0001, vs. vehicle). The HBG mRNA level of cells treated with 33 mM Hydroxyurea, an approved medicine for SCD, was 6.46-folds of the vehicle group.

[2] = test system: TNBS induced IBD in Balb/c mice; test: TNBS induced inflammatory bowel disease (IBD) model; assay type: in vivo
Description: Female Balb/c mice (8 weeks old) were obtained from Beijing Vital River Laboratory Animal Co. Ltd. Animals, and then housed and handled in a temperature-controlled environment with a 12-h light/12-h dark cycle. A total of 30 mice were assigned to 3 groups by randomization based on body weight.
On Day 0, the mice weighing 18-20 g were anesthetized with […] (Easycheck, M2910), and then further intra-rectally injected 100 μL 1.5% TNBS solution (final concentration in 50% ethanol) in the vehicle group and treatment groups. For the Sham group, the mice were intra-rectally injected with 50% ethanol at the same volume.
Mice in Group 1 and Group 2 were treated with vehicle for 8 days (po, qd, from day −1 to day 6). Mice in Group 3 were treated with 90 mg/kg Cpd. 73 for 8 days (po, qd, from day −1 to day 6). The protocols and procedures involving the care and use of animals were approved by the Institutional Animal Care and Use Committee (IACUC) at WuxiApptec (Shanghai, China).
Clinical signs of IBD were assessed every day based on the score of disease activity index (DAI) which was evaluated from three parameters using a scoring system from 0 to 4: stool consistency (0, normal stool; 1, soft but still formed stool; 2, soft and not formed stool; 3, very soft and wet stool; 4, watery diarrhea), bleeding score (0, negative hemoccult; 1, weak positive hemoccult; 2, positive hemoccult; 3, blood trace in stool visible; 4, gross rectal bleeding) and body weight loss (0, no body weight loos; 1, 1-5% body weight loss; 2, 6-10% body weight loss; 3, 11-20% body weight loss; 4, >20% body weight loss).
At the end of experiment (day 7), the animals were euthanized, dissected and the entire colon was quickly removed and gently cleared of feces.
At the end of experiment, the animals were euthanized, and blood was collected immediately by the heart punctures and used for whole blood cell analysis.
At the end of the study (day 7), the cell suspensions from sham control, model control and Cpd. 73 treatment groups were obtained from mesenteric lymph nodes (MLN). Cells were stained with the following florescence-labelled antibodies: APC-Cy7-conjugated anti-mouse CD45, BV510-conjugated anti-mouse CD3e, AF700-conjugated anti-mouse CD8a, BUV395-conjugated anti-mouse CD4, BV421-conjugated anti-mouse CD25, FITC-conjugated anti-mouse Foxp3, BV650-conjugated anti-mouse IFN-γ, APC-conjugated anti-mouse B220, BV395-conjugated anti-mouse CD3e, BV605-conjugated anti-mouse CD11b, BB700-conjugated anti-mouse CD11c, AF488-conjugated anti-mouse MHCII, BV421-conjugated anti-mouse NK1.1, BV510-conjugated anti-mouse Ly6G, PE-Cy7-conjugated anti-mouse CD107a and PE-CF594-conjugated anti-mouse F4/80. All cells were primarily gated on single and live lymphocytes based on forward scatter (FCS), side scatter (SSC) and live/dead staining buffer. Samples were analyzed on a flow cytometer (BD LSRFortessa) to count the percentage of each subtype of lymphocytes.
At the end of the study (day 7), all the animals were sacrificed by CO2. The colon was Swiss-rolled and fixed with neutralized PFA followed by H&E staining. After that, the pathologists from WuXi clinical pathological analysis platform, who were blinded to animal ID, reviewed the H&E staining and scored. The pathological scoring standards were as follows: crypt architecture (normal, 0; severe crypt distortion with loss of entire crypts, 3), degree of inflammatory cell infiltration (normal, 0; dense inflammatory infiltrate, 3), muscle thickening (normal, 0; marked muscle thickening present, 3), goblet cell depletion (absent, 0; present, 1) and crypt abscess (absent, 0; present, 1).
The fixed colon was stained with Masson's Trichrome to assess the collagen fibers in colon tissue. The Masson's Trichrome staining procedures was followed the standard protocol. After that, the pathological doctors from WuXi clinical pathological analysis platform reviewed the whole slices and scored blinded with animal information. […]

[3] = 90 mg/kg po qd day −1 to day 6, end of experiment, vs vehicle
[4] = 90 mg/kg po qd day −1 to day 6, vs vehicle
[5] = 90 mg/kg, day 7, flow cytometry, vs vehicle control

CC(C)N1Cc2cc(C(F)(F)F)ncc2-c2cnc(NCc3c(F)ccc4c3CCO4)n3cnc(c23)C1=O [Cpd. 73, 12-(((5-fluoro-2,3-dihydrobenzofuran-4-yl)methyl)amino)-4-isopropyl-7-(trifluoromethyl)-4,5-dihydro-3H-2,4,8,11,12a-pentaazabenzo[4,5]cycloocta[1,2,3-cd]inden-3-one]
HBG mRNA level, folds of the vehicle group ([1]; 0.01 μM): 1.09 folds | HBG mRNA level, folds of the vehicle group ([1]; 0.03 μM): 2.49 folds | HBG mRNA level, folds of the vehicle group ([1]; 0.1 μM): 7.84 folds | HBG mRNA level, folds of the vehicle group ([1]; 0.3 μM): 9.69 folds | HBG mRNA level, folds of the vehicle group ([1]; 1.0 μM, maximal effect, p<0.0001 vs vehicle): 12.2 folds | colon length ([2]; 90 mg/kg po qd day −1 to day 6, day 7, vehicle 6.26±0.17 cm): 8.79±0.22 cm | pathological score (H&E, colon) ([2]; 90 mg/kg po qd day −1 to day 6, day 7, vehicle 10.33±0.35): 1.70±0.37 | colon weight ([2]; 90 mg/kg po qd day −1 to day 6, day 7, vehicle 336.8±26.68 mg): 213.8 ± 6.08 mg | anemia (red blood cells and hemoglobin in peripheral blood) ([2]; 90 mg/kg po qd day −1 to day 6, end of experiment): improved | cell number of monocytes in peripheral blood [2, 3]: significantly reduced | cell number of neutrophils in peripheral blood [2, 3]: significantly reduced | fibrosis score (Masson's Trichrome, colon) ([2]; 90 mg/kg po qd day −1 to day 6, vehicle 4.33±0.30): 1.10±0.17 | DAI score [2, 4]: significantly reducing | body weight loss [2, 4]: improving | percentage of IFN-γ secreting CD4+ T cells (Th1 cells) in MLN [2, 5]: significantly reduced | percentage of NK cells in MLN [2, 5]: significantly reduced | percentage of activated NK cells in MLN [2, 5]: significantly reduced | percentage of macrophages in MLN [2, 5]: significantly reduced | percentage of neutrophils in mesenteric lymph nodes (MLN) [2, 5]: significantly reduced
